# Laboratory results taken from patent publication US20020137929A1, “1 - (3-heterocyclylphenyl) isothiourea, -isourea, -guanidine and -amidine herbicidal agents” (Intellectual Property Department, BASF Aktiengesellschaft, priority 1998, published 2002).
# Key:
# CYPIR (Rice Flatsedge) = assay: Preemergence weed control under flooded paddy conditions; format: in vivo, Cyperus iria; conditions: rated 3-4 weeks after treatment
# Method in brief: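 Visual injury scored 0-9 against control three to four weeks post-treatment, greenhouse-grown. Application: acetone/water (50/50) solutions dosed directly into flood water (1.5-3 cm over silt loam, planted top 0.5 cm), roughly 0.0313 to 0.500 kg/ha active ingredient.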
# [1] = test system: SAGPY (Arrowhead (Pygmaea)); assay: as above; format: in vivo, Sagittaria pygmaea; conditions: rated 3-4 weeks after treatment
# Method in brief: (§1)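 Values are visual 0-9 scores against a control for a preemergence application into paddy flood water at about 0.0313 to 0.500 kg/ha. Greenhouse duration was three to four weeks.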
# ECHCG (Barnyardgrass) = assay: Postemergence herbicidal evaluation; format: in vivo, Echinochloa crus-galli; conditions: for ECHCG herbicidal rating: postemergence
# Method in brief: (§2)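 Scores (0–9) reflect plant stand, vigor, malformation, size, chlorosis and general appearance relative to control, read 4 to 5 weeks after treatment and averaged where tests were repeated. Application: about 0.0156–0.500 kg/ha sprayed at 40 psi onto two-week seedlings.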
# MOOVA (Monochoria) = assay: Preemergence weed control under flooded paddy conditions; format: in vivo, Monochoria vaginalis; conditions: rated 3-4 weeks after treatment
# Method in brief: as §1
# CYPSE (Flatsedge) = assay: Postemergence weed control under flooded paddy conditions; format: in vivo, Cyperus serotinus; conditions: postemergence weeds
# Method in brief: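 Herbicidal effect is judged by eye on a 0–9 scale versus control, 3–4 weeks after dosing. Dosing is into flood water kept 1.5–3 cm over the soil, at about 0.0313–0.500 kg/ha in aqueous/acetone 50/50 v/v, on 3–5 cm weeds and 1.5–2.5-leaf rice seedlings.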
# [2] = test system: CHEAL (Lambsquarters, Common); assay: Postemergence herbicidal evaluation; format: in vivo, Chenopodium album; conditions: for CHEAL herbicidal rating: postemergence
# Method in brief: as §2
# CASOB (Sicklepod) = assay: Postemergence herbicidal evaluation; format: in vivo, Cassia obtusifolia; conditions: for CASOB herbicidal rating: postemergence
# Method in brief: as §2
# ORYSAT (Rice, Tebonnet) [3] = assay: Postemergence herbicidal evaluation; format: in vivo, Oryza sativa, (L.) Tebonnet; conditions: for ORYSAT herbicidal rating: postemergence
# Method in brief: as §2
# GALAP (Galium) = assay: Preemergence herbicidal evaluation; format: in vivo, Galium aparine; conditions: preemergence, rated 4-5 weeks after treatment, 0-9 scale
# Method in brief: (§3)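 Test compound, dissolved in aqueous acetone, was sprayed over planted soil cups at an equivalent of about 0.0156 to 0.500 kg/ha; seeds had been mixed with potting soil. Greenhouse growth followed, with visual 0-9 scoring of injury at four to five weeks.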
# [4] = test system: GLXMAW (Soybean, Williams); assay: Preemergence herbicidal evaluation; format: in vivo, Glycine max, (L.) Merr. cv Williams; conditions: preemergence, rated 4-5 weeks after treatment, 0-9 scale
# Method in brief: as §3
# ORYSAT (Rice, Tebonnet) [5] = assay: Preemergence herbicidal evaluation; format: in vivo, Oryza sativa, (L.) Tebonnet; conditions: preemergence, rated 4-5 weeks after treatment, 0-9 scale
# Method in brief: as §3
# SETVI (Foxtail, Green) = assay: Preemergence herbicidal evaluation; format: in vivo, Setaria viridis; conditions: preemergence, rated 4-5 weeks after treatment, 0-9 scale
# Method in brief: as §3
# [6] = test system: TRZAWR (Wheat, Winter, cv Riband); assay: Preemergence herbicidal evaluation; format: in vivo, Triticum aestivum; conditions: preemergence, rated 4-5 weeks after treatment, 0-9 scale
# Method in brief: as §3
# ZEAMX (Corn, Field) = assay: Preemergence herbicidal evaluation; format: in vivo, Zea mays; conditions: preemergence, rated 4-5 weeks after treatment, 0-9 scale
# Method in brief: as §3
structure (smiles),measurement,setting,value
"CCOC(=O)CN1C(=O)C(CC(=O)OC(C)C)SC1=Nc1cc(-n2c(=O)cc(C(F)(F)F)n(C)c2=O)c(F)cc1Cl (stereo not drawn) [Compound 55, 2-{{2-Chloro-5-[3,6-dihydro-3-methyl-2,6-dioxo-4-(trifluoromethyl)-1(2H)-pyrimidinyl]-4-fluoro-phenyl}imino}-4-oxo-3,5-thiazolidinediacetic acid, 3-ethyl isopropyl ester]",Herbicidal rating CYPIR,CYPIR (Rice Flatsedge); 0.0313 kg/ha,9.0
same,Herbicidal rating CYPIR,CYPIR (Rice Flatsedge); 0.0625 kg/ha,9.0
same,Herbicidal rating CYPIR,CYPIR (Rice Flatsedge); 0.1250 kg/ha,9.0
same,Herbicidal rating CYPIR,CYPIR (Rice Flatsedge); 0.2500 kg/ha,9.0
same,Herbicidal rating SAGPY,[1]; 0.0313 kg/ha,0.0
same,Herbicidal rating SAGPY,[1]; 0.0625 kg/ha,0.0
same,Herbicidal rating SAGPY,[1]; 0.1250 kg/ha,0.0
same,Herbicidal rating SAGPY,[1]; 0.2500 kg/ha,0.0
same,Postemergence herbicidal rating ECHCG,ECHCG (Barnyardgrass); Rate 0.0158 kg/ha,9.0
same,Postemergence herbicidal rating ECHCG,ECHCG (Barnyardgrass); Rate 0.0313 kg/ha,9.0
same,Postemergence herbicidal rating ECHCG,ECHCG (Barnyardgrass); Rate 0.0625 kg/ha,9.0
same,Postemergence herbicidal rating ECHCG,ECHCG (Barnyardgrass); Rate 0.1250 kg/ha,9.0
same,Postemergence herbicidal rating ECHCG,ECHCG (Barnyardgrass); Rate 0.2500 kg/ha,9.0
same,Herbicidal rating MOOVA,MOOVA (Monochoria); 0.0313 kg/ha,9.0
same,Herbicidal rating MOOVA,MOOVA (Monochoria); 0.0625 kg/ha,9.0
same,Herbicidal rating MOOVA,MOOVA (Monochoria); 0.1250 kg/ha,9.0
same,Herbicidal rating MOOVA,MOOVA (Monochoria); 0.2500 kg/ha,9.0
same,Herbicidal rating CYPSE,"CYPSE (Flatsedge); rate 0.0313 kg/ha, 3-4 weeks after treatment",0.0
same,Herbicidal rating CYPSE,"CYPSE (Flatsedge); rate 0.0625 kg/ha, 3-4 weeks after treatment",0.0
same,Herbicidal rating CYPSE,"CYPSE (Flatsedge); rate 0.1250 kg/ha, 3-4 weeks after treatment",0.0
same,Herbicidal rating CYPSE,"CYPSE (Flatsedge); rate 0.2500 kg/ha, 3-4 weeks after treatment",0.0
same,Postemergence herbicidal rating CHEAL,[2]; Rate 0.0158 kg/ha,9.0
same,Postemergence herbicidal rating CHEAL,[2]; Rate 0.0313 kg/ha,9.0
same,Postemergence herbicidal rating CHEAL,[2]; Rate 0.0625 kg/ha,9.0
same,Postemergence herbicidal rating CHEAL,[2]; Rate 0.1250 kg/ha,9.0
same,Postemergence herbicidal rating CHEAL,[2]; Rate 0.2500 kg/ha,9.0
same,Postemergence herbicidal rating CASOB,CASOB (Sicklepod); Rate 0.0158 kg/ha,1.0
same,Postemergence herbicidal rating CASOB,CASOB (Sicklepod); Rate 0.0313 kg/ha,7.7
same,Postemergence herbicidal rating CASOB,CASOB (Sicklepod); Rate 0.0625 kg/ha,9.0
same,Postemergence herbicidal rating CASOB,CASOB (Sicklepod); Rate 0.1250 kg/ha,8.0
same,Postemergence herbicidal rating CASOB,CASOB (Sicklepod); Rate 0.2500 kg/ha,9.0
same,Postemergence herbicidal rating ORYSAT,"ORYSAT (Rice, Tebonnet) [3]; Rate 0.0158 kg/ha",2.5
same,Postemergence herbicidal rating ORYSAT,"ORYSAT (Rice, Tebonnet) [3]; Rate 0.0313 kg/ha",3.5
same,Postemergence herbicidal rating ORYSAT,"ORYSAT (Rice, Tebonnet) [3]; Rate 0.0625 kg/ha",4.2
same,Postemergence herbicidal rating ORYSAT,"ORYSAT (Rice, Tebonnet) [3]; Rate 0.1250 kg/ha",5.5
same,Postemergence herbicidal rating ORYSAT,"ORYSAT (Rice, Tebonnet) [3]; Rate 0.2500 kg/ha",6.5
"CCOC(=O)CN1C(=O)C(CC(=O)NO)S/C1=N/c1cc(-n2c(=O)cc(C(F)(F)F)n(C)c2=O)c(F)cc1Cl (stereo not drawn) [Compound 98, Ethyl 2-{{2-chloro-5-[3,6-dihydro-3-methyl-2,6-dioxo-4-(trifluoromethyl)-1(2H)-pyrimidinyl]-4-fluorophenyl}imino}-5-[(hydroxycarbamoyl)methyl]-4-oxo-3-thiazolidineacetate]",GALAP rating,GALAP (Galium); 0.0156 kg/ha,1.0
same,GALAP rating,GALAP (Galium); 0.0313 kg/ha,0.0
same,GALAP rating,GALAP (Galium); 0.0625 kg/ha,6.0
same,GALAP rating,GALAP (Galium); 0.2500 kg/ha,7.0
same,GALAP rating,GALAP (Galium); 0.5000 kg/ha,7.0
same,CYPIR herbicidal effect rating,CYPIR (Rice Flatsedge); 0.0313 kg/ha,9.0
same,CYPIR herbicidal effect rating,CYPIR (Rice Flatsedge); 0.0625 kg/ha,9.0
same,CYPIR herbicidal effect rating,CYPIR (Rice Flatsedge); 0.1250 kg/ha,9.0
same,CYPIR herbicidal effect rating,CYPIR (Rice Flatsedge); 0.2500 kg/ha,9.0
same,GLXMAW rating,[4]; 0.0156 kg/ha,0.0
same,GLXMAW rating,[4]; 0.0313 kg/ha,0.0
same,GLXMAW rating,[4]; 0.0625 kg/ha,1.0
same,GLXMAW rating,[4]; 0.1250 kg/ha,1.0
same,GLXMAW rating,[4]; 0.2500 kg/ha,4.0
same,GLXMAW rating,[4]; 0.5000 kg/ha,5.0
same,ECHCG herbicidal rating,ECHCG (Barnyardgrass); rate 0.0156 kg/ha,0.0
same,ECHCG herbicidal rating,ECHCG (Barnyardgrass); rate 0.0313 kg/ha,0.0
same,ECHCG herbicidal rating,ECHCG (Barnyardgrass); rate 0.0625 kg/ha,1.0
same,ECHCG herbicidal rating,ECHCG (Barnyardgrass); rate 0.1250 kg/ha,1.0
same,MOOVA herbicidal effect rating,MOOVA (Monochoria); 0.0313 kg/ha,9.0
same,MOOVA herbicidal effect rating,MOOVA (Monochoria); 0.0625 kg/ha,9.0
same,MOOVA herbicidal effect rating,MOOVA (Monochoria); 0.1250 kg/ha,9.0
same,MOOVA herbicidal effect rating,MOOVA (Monochoria); 0.2500 kg/ha,9.0
same,ORYSAT rating,"ORYSAT (Rice, Tebonnet) [5]; 0.0156 kg/ha",0.0
same,ORYSAT rating,"ORYSAT (Rice, Tebonnet) [5]; 0.0313 kg/ha",0.0
same,ORYSAT rating,"ORYSAT (Rice, Tebonnet) [5]; 0.0625 kg/ha",0.0
same,ORYSAT rating,"ORYSAT (Rice, Tebonnet) [5]; 0.1250 kg/ha",0.0
same,ORYSAT rating,"ORYSAT (Rice, Tebonnet) [5]; 0.2500 kg/ha",1.0
same,ORYSAT rating,"ORYSAT (Rice, Tebonnet) [5]; 0.5000 kg/ha",4.0
same,Herbicidal rating CYPSE,"CYPSE (Flatsedge); Rate 0.0313 kg/ha, rated 3 to 4 weeks after treatment",2.0
same,Herbicidal rating CYPSE,"CYPSE (Flatsedge); Rate 0.0625 kg/ha, rated 3 to 4 weeks after treatment",3.0
same,Herbicidal rating CYPSE,"CYPSE (Flatsedge); Rate 0.1250 kg/ha, rated 3 to 4 weeks after treatment",4.0
same,Herbicidal rating CYPSE,"CYPSE (Flatsedge); Rate 0.2500 kg/ha, rated 3 to 4 weeks after treatment",4.0
same,SETVI rating,"SETVI (Foxtail, Green); 0.0156 kg/ha",0.0
same,SETVI rating,"SETVI (Foxtail, Green); 0.0313 kg/ha",1.0
same,SETVI rating,"SETVI (Foxtail, Green); 0.0625 kg/ha",0.0
same,SETVI rating,"SETVI (Foxtail, Green); 0.1250 kg/ha",4.0
same,SETVI rating,"SETVI (Foxtail, Green); 0.2500 kg/ha",3.0
same,SETVI rating,"SETVI (Foxtail, Green); 0.5000 kg/ha",7.0
same,TRZAWR rating,[6]; 0.0156 kg/ha,0.0
same,TRZAWR rating,[6]; 0.0313 kg/ha,0.0
same,TRZAWR rating,[6]; 0.0625 kg/ha,0.0
same,TRZAWR rating,[6]; 0.1250 kg/ha,0.0
same,TRZAWR rating,[6]; 0.2500 kg/ha,1.0
same,TRZAWR rating,[6]; 0.5000 kg/ha,3.0
same,CHEAL herbicidal rating,[2]; rate 0.0156 kg/ha,0.0
same,CHEAL herbicidal rating,[2]; rate 0.0313 kg/ha,1.0
same,CHEAL herbicidal rating,[2]; rate 0.0625 kg/ha,3.0
same,CHEAL herbicidal rating,[2]; rate 0.1250 kg/ha,9.0
same,ZEAMX rating,"ZEAMX (Corn, Field); 0.0156 kg/ha",0.0
same,ZEAMX rating,"ZEAMX (Corn, Field); 0.0313 kg/ha",0.0
same,ZEAMX rating,"ZEAMX (Corn, Field); 0.0625 kg/ha",0.0
same,ZEAMX rating,"ZEAMX (Corn, Field); 0.1250 kg/ha",0.0
same,ZEAMX rating,"ZEAMX (Corn, Field); 0.2500 kg/ha",4.0
same,ZEAMX rating,"ZEAMX (Corn, Field); 0.5000 kg/ha",6.0
same,CASOB herbicidal rating,CASOB (Sicklepod); rate 0.0156 kg/ha,0.0
same,CASOB herbicidal rating,CASOB (Sicklepod); rate 0.0313 kg/ha,0.0
same,CASOB herbicidal rating,CASOB (Sicklepod); rate 0.0625 kg/ha,0.0
same,CASOB herbicidal rating,CASOB (Sicklepod); rate 0.1250 kg/ha,1.0
same,ORYSAT herbicidal rating,"ORYSAT (Rice, Tebonnet) [3]; rate 0.0156 kg/ha",1.5
same,ORYSAT herbicidal rating,"ORYSAT (Rice, Tebonnet) [3]; rate 0.0313 kg/ha",2.5
same,ORYSAT herbicidal rating,"ORYSAT (Rice, Tebonnet) [3]; rate 0.0625 kg/ha",2.5
same,ORYSAT herbicidal rating,"ORYSAT (Rice, Tebonnet) [3]; rate 0.1250 kg/ha",2.0
